Our source for the GI50 and TGI values is PubChem BioAssay (NCI).

Structures are written as SMILES.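 Step 1: Grow cells in 96-well plates. Step 2: Expose to compound for 48 hours at 5 concentrations. Step 3: Interpolate endpoints linearly; if unreached, use highest concentration. Abbreviation: GI50, concentration required for 50% inhibition of growth. TGI: total growth inhibition.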

Some test systems named below: CAKI-1 renal; HCT-15 colon; HOP-62 NSCLC; HT29 colon; NCI-H522 lung; OVCAR-8 ovarian; PC-3 prostate; SK-MEL-28 melanoma; SNB-19 CNS; SW-620 colon.
Experiment in all cases: inhibition of tumour cell growth, NCI panel, 48 h

In the case of `CN(C)CCN1C(=O)c2cccc3c(/C=C/CN4C(=O)c5cccc6cccc(c56)C4=O)ccc(c23)C1=O`, the GI50 in the test on CAKI-1 renal was 13.4 µM; in the test with HCT-15 colon, over 100 µM; in the test with HOP-62 NSCLC, 42 µM; with HT29 colon, over 100 µM; in the test with NCI-H522 lung, over 100 µM; in the test with OVCAR-8 ovarian, 4.21 µM. Also, the GI50 was over 100 µM in the test with PC-3 prostate, 0.766 µM with SK-MEL-28 melanoma, 13.9 µM with SNB-19 CNS and over 100 µM in the test on SW-620 colon. Besides, the TGI in the test with CAKI-1 renal was 28.6 µM; in the test with HCT-15 colon, over 100 µM; in the test on HOP-62 NSCLC, over 100 µM; in the test on HT29 colon it was over 100 µM; in the test on NCI-H522 lung it was over 100 µM; in the test with OVCAR-8 ovarian, over 100 µM. Further, the TGI with PC-3 prostate was over 100 µM; in the test on SK-MEL-28 melanoma, 4.71 µM; with SNB-19 CNS, 26.9 µM; in the test on SW-620 colon, over 100 µM.

Turning to `Nc1nc(Cl)nc2c1ncn2C1OC(CO)C(O)C1F` (stereo not given), the GI50 in the test on CAKI-1 renal is 0.0351 µM; in the test on HCT-15 colon it was 5.96 µM; in the test with HOP-62 NSCLC it was 0.109 µM; with HT29 colon, 0.445 µM; in the test on NCI-H522 lung, over 68.2 µM; in the test with OVCAR-8 ovarian, 0.0292 µM. The GI50 was 99.7 µM with PC-3 prostate, over 9.44 µM in the test on SK-MEL-28 melanoma, 0.191 µM in the test with SNB-19 CNS and 0.839 µM in the test with SW-620 colon. In addition, the TGI in the test with CAKI-1 renal is 0.959 µM; in the test with HCT-15 colon it was over 100 µM; with HOP-62 NSCLC, 22.4 µM; in the test on HT29 colon it was over 100 µM; in the test with NCI-H522 lung, over 100 µM; in the test on OVCAR-8 ovarian, over 100 µM. In addition, the TGI in the test on PC-3 prostate, in the test with SK-MEL-28 melanoma, in the test on SNB-19 CNS and with SW-620 colon was over 100 µM each time.

Take `Cc1cc(=O)[nH]c(N/N=C/c2ccccc2O)n1`: the GI50 in the test on CAKI-1 renal is 5.19 µM; with HCT-15 colon, 4.63 µM; with HOP-62 NSCLC it was 19 µM; in the test on HT29 colon, 5.72 µM; in the test on NCI-H522 lung, 7.67 µM; with OVCAR-8 ovarian, 3.1 µM. Besides, the GI50 in the test on PC-3 prostate was 4.95 µM; in the test with SK-MEL-28 melanoma, 25.3 µM; in the test on SNB-19 CNS it was 24.5 µM; with SW-620 colon, 4.6 µM. The TGI in the test with CAKI-1 renal, with HCT-15 colon, in the test with HOP-62 NSCLC, with HT29 colon, in the test with NCI-H522 lung and with OVCAR-8 ovarian was over 100 µM in each case. For the same molecule, the TGI with PC-3 prostate, with SK-MEL-28 melanoma, with SNB-19 CNS and in the test with SW-620 colon was over 100 µM in each case.

On to `O=c1cc(-c2ccccc2)[nH]c2c1CCCC2`, for which the GI50 in the test with CAKI-1 renal was 0.944 µM; in the test with HCT-15 colon, 2.01 µM; with HOP-62 NSCLC, 4.51 µM; in the test on HT29 colon, 2 µM; in the test on NCI-H522 lung, 2 µM; with OVCAR-8 ovarian it was 4.58 µM. Besides, the GI50 in the test with PC-3 prostate is 3.18 µM; in the test on SK-MEL-28 melanoma, over 100 µM; in the test with SNB-19 CNS it was 8.9 µM; in the test on SW-620 colon, 1.64 µM. Moreover, the TGI is over 100 µM in the test with CAKI-1 renal; over 100 µM in the test on HCT-15 colon; over 100 µM with HOP-62 NSCLC; over 100 µM in the test on HT29 colon; 6.71 µM in the test with NCI-H522 lung; over 100 µM with OVCAR-8 ovarian. The TGI in the test with PC-3 prostate, in the test with SK-MEL-28 melanoma, in the test with SNB-19 CNS and with SW-620 colon was over 100 µM throughout.

`N#CC1=C(N)NC(N2CCOCC2)=NC12Nc1ccccc1O2` (stereo not given): the GI50 was 25.3 µM in the test with CAKI-1 renal; 38.2 µM in the test with HCT-15 colon; 14 µM in the test with HOP-62 NSCLC; 47.2 µM in the test on HT29 colon; 23 µM in the test on NCI-H522 lung; 80.6 µM in the test on OVCAR-8 ovarian. Besides, the GI50 in the test with PC-3 prostate was 31.8 µM; with SK-MEL-28 melanoma, over 100 µM; in the test on SNB-19 CNS, 90.7 µM; in the test with SW-620 colon, 43.2 µM. Also, the TGI is 86.7 µM in the test with CAKI-1 renal; over 100 µM in the test with HCT-15 colon; 51.3 µM in the test with HOP-62 NSCLC; over 100 µM with HT29 colon; 75 µM in the test with NCI-H522 lung; over 100 µM in the test with OVCAR-8 ovarian. Besides, the TGI in the test with PC-3 prostate, in the test with SK-MEL-28 melanoma, in the test on SNB-19 CNS and in the test on SW-620 colon was over 100 µM each time.

For `COc1cc(OC)c2c(=O)cc(-c3ccccc3OCc3ccccc3)oc2c1OC`, the GI50 with CAKI-1 renal was 3.21 µM; in the test on HCT-15 colon, 16.2 µM; in the test with HOP-62 NSCLC it was 10.7 µM; with HT29 colon it was 28.9 µM; in the test on NCI-H522 lung, 50.7 µM; in the test on OVCAR-8 ovarian, over 100 µM. For the same molecule, the GI50 in the test with PC-3 prostate was 3.34 µM; with SK-MEL-28 melanoma, 12.7 µM; with SNB-19 CNS it was 41.7 µM; in the test with SW-620 colon it was 8.06 µM. The TGI is 24.2 µM with CAKI-1 renal; over 100 µM in the test with HCT-15 colon; 44.4 µM in the test with HOP-62 NSCLC; over 100 µM in the test on HT29 colon; over 100 µM in the test on NCI-H522 lung; over 100 µM in the test on OVCAR-8 ovarian. In addition, the TGI in the test on PC-3 prostate is 32.5 µM; in the test on SK-MEL-28 melanoma it was 46.5 µM; in the test on SNB-19 CNS, over 100 µM; in the test on SW-620 colon, over 100 µM.

Take `O=C1NC(=O)C(c2cccc(Cl)c2)=C1Nc1ccc(Cl)c(C(=O)O)c1`: the GI50 in the test with CAKI-1 renal, in the test with HCT-15 colon, with HOP-62 NSCLC, in the test with HT29 colon, in the test on NCI-H522 lung and in the test on OVCAR-8 ovarian was over 25 µM each time. For the same molecule, the GI50 in the test with PC-3 prostate, with SK-MEL-28 melanoma, with SNB-19 CNS and in the test with SW-620 colon was over 25 µM each time. The TGI in the test with CAKI-1 renal, in the test on HCT-15 colon, in the test on HOP-62 NSCLC, in the test with HT29 colon, in the test on NCI-H522 lung and in the test on OVCAR-8 ovarian was over 25 µM each time. The TGI in the test with PC-3 prostate, in the test on SK-MEL-28 melanoma, in the test on SNB-19 CNS and in the test with SW-620 colon was over 25 µM each time.
